Reference: ChEMBL document CHEMBL1141701, “N-alkyl-5H-pyrido[4,3-b]indol-1-amines and derivatives as novel urotensin-II receptor antagonists” (Bioorg Med Chem Lett, 2008)
≈ marks a conversion by molar mass, not a printed value. One block for each compound: values may come before it.

Tests used:
Urotensin-2 receptor [1] = biological target: T1, Urotensin-2 receptor (Homo sapiens, UniProt Q9UKP6); assay: Displacement of [125I]human urotensin 2 from human recombinant urotensin 2 receptor expressed in HEK293 cells; format: cell-based
T1 sequence (Q9UKP6 whole entry): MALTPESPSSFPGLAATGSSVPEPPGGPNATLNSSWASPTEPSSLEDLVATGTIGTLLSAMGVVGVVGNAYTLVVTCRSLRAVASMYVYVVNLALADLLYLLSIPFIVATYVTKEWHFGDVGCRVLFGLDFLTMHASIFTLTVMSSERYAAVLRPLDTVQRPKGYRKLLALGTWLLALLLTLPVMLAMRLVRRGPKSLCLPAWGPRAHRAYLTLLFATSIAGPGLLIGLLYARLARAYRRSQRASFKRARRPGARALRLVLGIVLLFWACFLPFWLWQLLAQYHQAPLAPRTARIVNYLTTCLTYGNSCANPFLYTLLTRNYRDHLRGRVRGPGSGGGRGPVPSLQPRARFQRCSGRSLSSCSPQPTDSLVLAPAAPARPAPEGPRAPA

Urotensin II receptor = biological target: T2, Urotensin II receptor (Felis catus, UniProt Q533H1); assay: Displacement of [125I]human urotensin 2 from cat urotensin 2 receptor expressed in HEK293 cells; format: cell-based
T2 sequence (Q533H1 whole entry): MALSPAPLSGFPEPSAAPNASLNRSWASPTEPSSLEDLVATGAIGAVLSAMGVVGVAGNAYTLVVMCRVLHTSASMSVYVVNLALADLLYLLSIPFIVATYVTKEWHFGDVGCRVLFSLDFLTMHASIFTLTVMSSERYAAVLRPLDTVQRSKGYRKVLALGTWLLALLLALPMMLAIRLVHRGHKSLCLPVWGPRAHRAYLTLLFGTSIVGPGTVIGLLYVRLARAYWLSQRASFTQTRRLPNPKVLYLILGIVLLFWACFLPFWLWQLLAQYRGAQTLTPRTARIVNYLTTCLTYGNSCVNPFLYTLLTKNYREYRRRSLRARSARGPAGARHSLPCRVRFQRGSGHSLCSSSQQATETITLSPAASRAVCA

Urotensin-2 receptor [2] = biological target: T1, Urotensin-2 receptor; assay: Antagonist activity at human urotensin 2 receptor by FLIPR assay; format: functional; settings: read-out: pA2 (converted)
[3] = Selectivity for human urotensin 2 receptor over adrenergic beta2 receptor
[4] = Selectivity for human urotensin 2 receptor over histamine H3 receptor
[5] = Selectivity for human urotensin 2 receptor over 5HT2A receptor
[6] = Selectivity for human urotensin 2 receptor over muscarinic M5 receptor
[7] = Aqueous solubility in phosphate buffer by HPLC; format: physicochemical
[8] = Selectivity for human urotensin 2 receptor over 5HT1B receptor
[9] = Selectivity for human urotensin 2 receptor over adenosine A2b receptor
Urotensin-2 receptor [10] = biological target: T1, Urotensin-2 receptor; assay: Antagonist activity at human recombinant urotensin 2 receptor expressed in HEK293 cells assessed as inhibition of […] calcium mobilization by FLIPR assay; format: functional, cell-based
[11] = Selectivity for human urotensin 2 receptor over histamine H1 receptor
[12] = Selectivity for human urotensin 2 receptor over adrenergic Alpha-1B receptor
[13] = Selectivity for human urotensin 2 receptor over 5HT4A receptor
[14] = Selectivity for human urotensin 2 receptor over 5HT1A receptor
[15] = Selectivity for human urotensin 2 receptor over muscarinic M1 receptor
[16] = Selectivity for human urotensin 2 receptor over muscarinic M4 receptor
Cytochrome P450 3A4 = Cytochrome P450 3A4 (Homo sapiens, UniProt P08684); assay: Inhibition of CYP3A4; format: ADME
Homo sapiens = organism: Homo sapiens; assay: Selectivity for human urotensin 2 receptor over human ERG
[17] = Selectivity for human urotensin 2 receptor over muscarinic M3 receptor
[18] = Selectivity for human urotensin 2 receptor over dopamine D2 receptor
[19] = Selectivity for human urotensin 2 receptor over 5HT1D receptor
[20] = Oral bioavailability in rat at 0.97 mg/kg; format: ADME, organism-based; settings: in vivo
[21] = Blood clearance in rat at 0.49 mg/kg, iv or 0.97 mg/kg, po; format: ADME, organism-based
[22] = Selectivity for human urotensin 2 receptor over 5HT7 receptor
[23] = Selectivity for human urotensin 2 receptor over adenosine A1 receptor
[24] = biological target: Voltage-gated inwardly rectifying potassium channel KCNH2 (Homo sapiens, UniProt Q12809); assay: Inhibition of human ERG
[25] = Selectivity for human urotensin 2 receptor over adenosine A2a receptor
[26] = Selectivity for human urotensin 2 receptor over 5HT3 receptor
[27] = Selectivity for human urotensin 2 receptor over CXCR2
[28] = Selectivity for human urotensin 2 receptor over muscarinic M2 receptor
Cytochrome P450 2D6 = Cytochrome P450 2D6 (Homo sapiens, UniProt P10635); assay: Inhibition of CYP2D6; format: ADME
[29] = Selectivity for human urotensin 2 receptor over dopamine D3 receptor
[30] = Half life in rat at 0.49 mg/kg, iv or 0.97 mg/kg, po; format: ADME, organism-based; settings: in vivo
[31] = Permeability across artificial phospholipid membrane by HPLC; format: ADME; settings: not told; read-out: permeability
[32] = Selectivity for human urotensin 2 receptor over 5HT6 receptor
[33] = Selectivity for human urotensin 2 receptor over adrenergic alpha1A receptor
[34] = Selectivity for human urotensin 2 receptor over 5HT2C receptor

Cytochrome P450 3A4, sequence (P08684 whole entry): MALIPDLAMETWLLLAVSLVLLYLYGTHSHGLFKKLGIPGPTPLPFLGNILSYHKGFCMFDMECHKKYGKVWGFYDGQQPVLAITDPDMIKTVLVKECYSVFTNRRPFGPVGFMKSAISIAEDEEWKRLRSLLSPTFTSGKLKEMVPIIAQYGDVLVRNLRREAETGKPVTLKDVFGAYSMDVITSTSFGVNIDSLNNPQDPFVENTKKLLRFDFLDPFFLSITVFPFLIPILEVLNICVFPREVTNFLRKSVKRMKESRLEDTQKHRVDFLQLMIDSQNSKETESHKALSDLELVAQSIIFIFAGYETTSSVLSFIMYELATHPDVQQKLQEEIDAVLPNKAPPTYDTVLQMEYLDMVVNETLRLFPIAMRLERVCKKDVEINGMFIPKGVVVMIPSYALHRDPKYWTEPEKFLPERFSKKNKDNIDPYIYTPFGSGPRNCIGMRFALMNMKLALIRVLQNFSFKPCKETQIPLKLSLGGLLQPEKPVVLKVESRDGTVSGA
Cytochrome P450 2D6, sequence (P10635 whole entry): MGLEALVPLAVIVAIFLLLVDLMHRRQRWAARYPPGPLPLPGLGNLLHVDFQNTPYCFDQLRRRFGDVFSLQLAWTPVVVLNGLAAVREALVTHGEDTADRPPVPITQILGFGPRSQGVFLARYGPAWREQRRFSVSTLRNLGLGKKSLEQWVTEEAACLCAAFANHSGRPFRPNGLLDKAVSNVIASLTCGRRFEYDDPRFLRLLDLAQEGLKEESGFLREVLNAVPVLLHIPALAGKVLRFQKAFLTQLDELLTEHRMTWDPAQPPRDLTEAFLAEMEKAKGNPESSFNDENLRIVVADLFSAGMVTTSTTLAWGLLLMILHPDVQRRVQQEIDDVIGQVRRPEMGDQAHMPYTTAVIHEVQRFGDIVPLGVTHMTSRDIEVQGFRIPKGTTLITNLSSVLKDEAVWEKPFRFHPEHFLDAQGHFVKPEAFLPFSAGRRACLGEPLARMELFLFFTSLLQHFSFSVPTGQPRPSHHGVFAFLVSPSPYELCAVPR
Voltage-gated inwardly rectifying potassium channel KCNH2, sequence (Q12809 whole entry): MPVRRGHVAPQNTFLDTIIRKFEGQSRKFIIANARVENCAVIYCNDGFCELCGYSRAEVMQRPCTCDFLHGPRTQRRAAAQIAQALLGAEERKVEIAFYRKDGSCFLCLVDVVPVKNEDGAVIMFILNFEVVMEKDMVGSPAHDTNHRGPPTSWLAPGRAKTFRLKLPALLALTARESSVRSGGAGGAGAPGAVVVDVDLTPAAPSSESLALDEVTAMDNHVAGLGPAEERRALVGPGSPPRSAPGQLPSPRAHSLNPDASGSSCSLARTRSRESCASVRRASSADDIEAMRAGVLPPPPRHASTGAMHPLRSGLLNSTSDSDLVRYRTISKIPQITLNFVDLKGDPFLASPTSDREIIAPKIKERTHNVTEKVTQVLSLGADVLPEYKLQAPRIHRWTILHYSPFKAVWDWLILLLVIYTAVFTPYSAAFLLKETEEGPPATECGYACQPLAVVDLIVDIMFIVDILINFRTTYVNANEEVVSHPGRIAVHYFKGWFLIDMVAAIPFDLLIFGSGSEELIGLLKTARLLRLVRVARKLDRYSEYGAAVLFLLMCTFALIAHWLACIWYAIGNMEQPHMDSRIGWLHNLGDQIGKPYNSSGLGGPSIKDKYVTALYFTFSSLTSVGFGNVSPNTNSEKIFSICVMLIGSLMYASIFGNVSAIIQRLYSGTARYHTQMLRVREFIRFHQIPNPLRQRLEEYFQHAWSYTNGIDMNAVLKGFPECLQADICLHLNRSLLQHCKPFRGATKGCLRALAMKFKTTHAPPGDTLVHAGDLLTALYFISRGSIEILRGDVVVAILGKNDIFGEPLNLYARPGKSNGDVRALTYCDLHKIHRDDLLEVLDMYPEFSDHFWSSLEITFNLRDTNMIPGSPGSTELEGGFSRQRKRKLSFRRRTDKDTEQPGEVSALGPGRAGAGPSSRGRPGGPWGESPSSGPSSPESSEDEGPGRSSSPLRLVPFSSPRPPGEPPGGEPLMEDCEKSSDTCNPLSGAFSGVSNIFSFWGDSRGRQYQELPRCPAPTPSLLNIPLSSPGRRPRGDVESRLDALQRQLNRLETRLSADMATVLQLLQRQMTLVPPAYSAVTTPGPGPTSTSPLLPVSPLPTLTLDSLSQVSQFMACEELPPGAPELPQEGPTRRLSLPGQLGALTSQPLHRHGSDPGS

SMILES: COCCN(C)c1nccc2[nH]c3ccccc3c12
- Ki (Urotensin-2 receptor [1]): > 7940 nM

SMILES: c1ccc2c(c1)[nH]c1ccnc(NC3CC3)c12
- Ki (Urotensin-2 receptor [1]): 2510 nM

SMILES: CCCCNc1nccc2c1c1ccccc1n2C(C)C
- Ki (Urotensin-2 receptor [1]): 63.1 nM

SMILES: COCCNc1ccnc2[nH]c3ccccc3c12
- Ki (Urotensin-2 receptor [1]): 316 nM

SMILES: c1ccc2c(c1)[nH]c1nccc(NCC3CC3)c12
- Ki (Urotensin-2 receptor [1]): 100 nM

SMILES: CCCC(C)Nc1nccc2[nH]c3ccccc3c12 (centres undefined)
- Ki (Urotensin-2 receptor [1]): 794 nM

SMILES: CCCCN(CCCC)c1nccc2[nH]c3ccccc3c12
- Ki (Urotensin-2 receptor [1]): 794 nM

SMILES: c1ccc(CCNc2nccc3[nH]c4ccccc4c23)cc1
- Ki (Urotensin-2 receptor [1]): 100 nM

SMILES: c1ccc(Nc2nccc3[nH]c4ccccc4c23)cc1
- Ki (Urotensin-2 receptor [1]): > 7940 nM

SMILES: c1csc(CNc2nccc3[nH]c4ccccc4c23)c1
- Kb (Urotensin-2 receptor [2]): 158 nM
- Ki (Urotensin-2 receptor [1]): 25.1 nM
- Ki (Urotensin II receptor): 3160 nM

SMILES: c1ccc2c(c1)[nH]c1ccnc(NCC3CCCCC3)c12
- Ki (Urotensin-2 receptor [1]): 10 nM

SMILES: CCCCNc1ccnc2[nH]c3ccc(C)cc3c12
- Ki (Urotensin-2 receptor [1]): 63.1 nM

SMILES: CCCCNc1ccnc2[nH]c3ccccc3c12
- Ki (Urotensin-2 receptor [1]): 79.4 nM

SMILES: c1ccc(CNc2nccc3[nH]c4ccccc4c23)cc1
- Kb (Urotensin-2 receptor [2]): 20 nM
- Ki (Urotensin-2 receptor [1]): 12.6 nM
- Ki (Urotensin II receptor): 1000 nM

SMILES: c1ccc2c(c1)[nH]c1ccnc(NCC3CCCO3)c12 (centres undefined)
- Ki (Urotensin-2 receptor [1]): 79.4 nM

SMILES: c1ccc2c(c1)[nH]c1ccnc(NCC3CC3)c12
- Kb (Urotensin-2 receptor [2]): 126 nM
- Ki (Urotensin-2 receptor [1]): 6.31 nM
- Ki (Urotensin II receptor): 2510 nM

SMILES: c1ccc2c(c1)[nH]c1ccnc(NC3CCCCC3)c12
- Ki (Urotensin-2 receptor [1]): > 7940 nM

SMILES: CCCCNc1nccc2c1c1ccccc1n2C
- Ki (Urotensin-2 receptor [1]): 50.1 nM
- Ki (Urotensin II receptor): 1000 nM

SMILES: CCCCNc1ccnc2[nH]c3c(OC)cccc3c12
- Ki (Urotensin-2 receptor [1]): 31.6 nM

SMILES: CCCCNc1nccc2c1c1ccccc1n2Cc1ccccc1
- Ki (Urotensin-2 receptor [1]): 3980 nM

SMILES: c1ccc2c(c1)[nH]c1ccnc(NCCN3CCOCC3)c12
- Ki (Urotensin-2 receptor [1]): > 7940 nM

SMILES: CCCCNc1ccnc2[nH]c3ccc(Cl)cc3c12
- Ki (Urotensin-2 receptor [1]): 50.1 nM

SMILES: c1ccc2c(c1)[nH]c1nccc(NCC3CCCCC3)c12
- Ki (Urotensin-2 receptor [1]): 794 nM

Continued, in another order:

- Ki (Urotensin-2 receptor [1]): 3.98 nM
- Ki (Urotensin II receptor): 398 nM
SMILES: CCCCCNc1nccc2[nH]c3ccccc3c12

- Kb (Urotensin-2 receptor [2]): 100 nM
- Ki (Urotensin-2 receptor [1]): 10 nM
- Ki (Urotensin II receptor): 1260 nM
SMILES: CCC(C)CNc1nccc2[nH]c3ccccc3c12 (centres undefined)

- Ki (Urotensin-2 receptor [1]): > 7940 nM
SMILES: CC(=O)NCCNc1nccc2[nH]c3ccccc3c12

- Ki (Urotensin-2 receptor [1]): 1580 nM
SMILES: CCNc1nccc2[nH]c3ccccc3c12

- Ki (Urotensin-2 receptor [1]): 6.31 nM
- Ki (Urotensin II receptor): 200 nM
SMILES: CCCCCCNc1nccc2[nH]c3ccccc3c12

- Ki (Urotensin-2 receptor [1]): 25.1 nM
SMILES: CCCNc1nccc2[nH]c3ccccc3c12

- Ki (Urotensin-2 receptor [1]): > 7940 nM
SMILES: CN(C)CCNc1nccc2[nH]c3ccccc3c12

- Ki (Urotensin-2 receptor [1]): 20 nM
SMILES: COCCNc1nccc2[nH]c3ccccc3c12

- Ki (Urotensin-2 receptor [1]): 12.6 nM
SMILES: CCOCCNc1nccc2[nH]c3ccccc3c12

- Ki (Urotensin-2 receptor [1]): 12.6 nM
- Ki (Urotensin II receptor): 1580 nM
SMILES: CC(C)CCNc1nccc2[nH]c3ccccc3c12

- Selectivity ratio [3]: 100
- Selectivity ratio [4]: 100
- Selectivity ratio [5]: 100
- Selectivity ratio [6]: 100
- solubility [7]: 195 µM (≈ 46.7 µg/mL)
- Selectivity ratio [8]: 100
- Selectivity ratio [9]: 100
- IC50 (Urotensin-2 receptor [10]): 501 nM
- Kb (Urotensin-2 receptor [2]): 100 nM
- Selectivity ratio [11]: 100
- Selectivity ratio [12]: 100
- Selectivity ratio [13]: 100
- Ki (Urotensin-2 receptor [1]): 3.98 nM
- Selectivity ratio [14]: 100
- Selectivity ratio [15]: 100
- Selectivity ratio [16]: 100
- IC50 (Cytochrome P450 3A4): 100 nM
- Selectivity ratio (Homo sapiens): 400
- Selectivity ratio [17]: 100
- Selectivity ratio [18]: 100
- Ki (Urotensin II receptor): 631 nM
- Selectivity ratio [19]: 100
- bioavailability [20]: 11%
- clearance [21]: 110 mL/min/kg
- Selectivity ratio [22]: 100
- Selectivity ratio [23]: 100
- Selectivity ratio [25]: 100
- Selectivity ratio [26]: 100
- Selectivity ratio [27]: 100
- Selectivity ratio [28]: 100
- IC50 (Cytochrome P450 2D6): 7.94 nM
- Selectivity ratio [29]: 100
- half-life [30]: 1.3 h
- Papp [31]: 47 ×10⁻⁶ cm/s
- Selectivity ratio [32]: 100
- Selectivity ratio [33]: 100
- Selectivity ratio [34]: 100
SMILES: CCCCNc1nccc2[nH]c3ccccc3c12
- IC50 [24]: 1580 nM

- Ki (Urotensin-2 receptor [1]): > 7940 nM
SMILES: NC(=O)CCNc1nccc2[nH]c3ccccc3c12
